Reference: patent US20040002069A1, “Hepatic gene expression profiling of streptozotocin-induced diabetes” (The Regents of the University of California, priority 2002, published 2004)

Assays:
[1] = test system: hepatic gene expression; test: Hepatic gene expression profiling of streptozotocin-induced diabetes (Affymetrix Mu11KsubA/Mu11KsubB arrays); assay type: in vivo, Swiss-Webster mice
Description: (§1) Mice and treatment. Female, 8-month old Swiss-Webster mice were purchased from Jackson Laboratories. Diabetes was induced by three weekly intraperitoneal injections of streptozotocin (STZ; 10 mg/100 g body weight) in 50 mM sodium citrate, pH 4.5. […] Only mice with blood glucose levels higher than 3 mg/ml were used. Mice injected with equivalent volumes of sodium citrate at the same times served as controls. Mice were sacrificed one week after the last injection. Mice were fasted for 24 h before sacrifice.
Measurement of Specific mRNA Levels. Total liver RNA was isolated from frozen tissue fragments using TRI Reagent (Molecular Research Center, Inc., Cincinnati, Ohio) as described previously (Cao et al., Proc. Natl. Acad. Sci. U.S. A. 98:10630-10635 (2001)). Specific mRNA levels were measured using the Affymetrix Mu11KsubA and Mu11KsubB high-density oligonucleotide arrays using standard Affymetrix protocols as described (Cao et al., Proc. Natl. Acad. Sci. U.S. A. 98:10630-10635 (2001)). Briefly, cDNA was prepared from total RNA using Superscript Choice System with a primer containing oligo(dT) and the T7 RNA polymerase promoter sequence. Biotinylated cRNA was synthesized from purified cDNA using the Enzo BioArray High Yield RNA Transcript Labeling Kit (Enzo Biochem), and CRNA purified using RNeasy mini columns (Qiagen, Chatsworth, Calif.). An equal amount of cRNA from each animal was separately hybridized to Mu11KsubA and Mu11ksubB high-density oligonucleotide arrays. The arrays were hybridized for 16 h at 45° C. After hybridization, arrays were washed, stained with streptavidin-phycoerythrin, and scanned using a Hewlett-Packard GeneArray Scanner.
Data Analysis and Statistics. Image analysis and data quantification were performed using the Affymetrix Microarray Suite 5.0. Affymetrix Mu11KsubA and Mu11KsubB arrays contain targets for more than 11,000 mouse genes and expressed sequence tags (ESTs). Each gene or EST is represented on the array by 20 perfectly matched (PM) oligonucleotides and 20 mismatched (MM) control probes that contain a single central-base mismatch. The signal intensities of PM and MM were used to calculate a discrimination score, R, which is equal to (PM−MM)/(PM+MM). A detection algorithm utilized R to generate a detection p-value and assign a Present, Marginal or Absent call using the Wilcoxon signed rank test (Wilcoxon F., Biometrics 1:80-83 (1945); Affymetrix, Inc., New Statistical Algorithms for Monitoring Gene Expression on GeneChip Probe Arrays, Technical Notes 1, Part No. 701097 Rev. 1 (2001)). Only genes that were “Present” in at least 2 out of 3 arrays per experimental group were considered for further analysis. A signal algorithm calculated the relative level of expression of each transcript using the One-Step Tukey's Biweight Estimate (Affymetrix, Inc., New Statistical Algorithms for Monitoring Gene Expression on GeneChip Probe Arrays, Technical Notes 1, Part No. 701097 Rev. 1 (2001)). This procedure generates a robust weighted mean that is relatively insensitive to outliers, even when they are extreme. Genes with a signal intensity lower than the mean array signal intensity in 2 or more of the 3 arrays in either experimental group were eliminated from the analysis. All arrays were scaled to a target intensity of 2500. To identify differentially expressed genes, each of the 3 control samples was compared with each of the 3 STZ-treated samples, resulting in 9 pairwise comparisons. […] Difference values (PM-MM) between the control and STZ-treated arrays were used to generate a one-sided p-value for each set of probes. Default boundaries between significant and not significant p-values were used (Affymetrix, Inc., New Statistical Algorithms for Monitoring Gene Expression on GeneChip Probe Arrays, Technical Notes 1, Part No. 701097 Rev. 1 (2001)). […]

[2] = Blood glucose measurements after streptozotocin injections; assay type: in vivo, Swiss-Webster mice; settings: three weekly intraperitoneal injections, 10 mg/100 g body weight; one week after the third injection
Description: as §1

## CN(N=O)C(=O)N[C@H]1C(O)O[C@H](CO)[C@@H](O)[C@@H]1O (mixture of isomers) [STZ, streptozotocin]
[1]; GenBank AA000467, liver, STZ vs control mice
  FC RIKEN cDNA 1110002E23 gene: 2.0 fold
[1]; GenBank AA008321, liver, STZ vs control mice
  FC Proteasome (prosome, macropain) subunit, alpha type 4 (Psma4) mRNA: 2.0 fold
[1]; GenBank AA016424, liver, STZ vs control mice
  FC X-box binding protein 1 (Xbp1) mRNA: 2.1 fold
[1]; GenBank AA028770, liver, STZ vs control mice
  FC Cysteine-rich protein 2 (Csrp2) mRNA: 2.0 fold
[1]; GenBank AA038437, liver, STZ vs control mice
  FC Similar to eukaryotic translation initiation factor 4 gamma, 1 (0610008L05Rik): 2.6 fold
[1]; GenBank AA048927, liver, STZ vs control mice
  FC Bifunctional aminoacyl-tRNA synthetase mRNA: 3.6 fold
[1]; GenBank AA066610, liver, STZ vs control mice
  FC RIKIEN cDNA 1810034D23 gene: 1.9 fold
[1]; GenBank AA096813, liver, STZ vs control mice
  FC CathepsinL (Ctsl) mRNA: 2.5 fold
[1]; GenBank AA106783, liver, STZ vs control mice
  FC Poly A binding protein, cytoplasmic 1 (Pabpc1) mRNA: 2.0 fold
[1]; GenBank AA110781, liver, STZ vs control mice
  FC Phosphoenolpyruvate carboxykinase 1, cytosolic (Pck1) mRNA: 3.6 fold
[1]; GenBank AA124572, liver, STZ vs control mice
  FC mp72b03.rl Soares thymus cDNA clone IMAGE:574733, similar to cyclophilin: 1.9 fold
[1]; GenBank AA137436, liver, STZ vs control mice
  FC Stearoyl-Coenzyme A desaturase 1 (Sed1) mRNA: −14.0 fold
[1]; GenBank AA137659, liver, STZ vs control mice
  FC Cytochrome P450, 2c40 (Cyp2c40) mRNA: −2.5 fold
[1]; GenBank AA138378, liver, STZ vs control mice
  FC Heat shock protein, 74 kDa, A (Hspa9A) mRNA: 3.5 fold
[1]; GenBank AA165782, liver, STZ vs control mice
  FC Protease (prosome, macropain) 28 subunit, alpha (Psme1) mRNA: 1.9 fold
[1]; GenBank AA172909, liver, STZ vs control mice
  FC Carbon catabolite repression 4 homolog (S. cerevisiae) (Ccr4) mRNA: 1.8 fold
[1]; GenBank AA174883, liver, STZ vs control mice
  FC Erythroid differentiation regulator (Edr) mRNA: 1.8 fold
[1]; GenBank AA217659, liver, STZ vs control mice
  FC Nuclear receptor coactivator 4 (Ncoa4) mRNA: 1.8 fold
[1]; GenBank AA237297, liver, STZ vs control mice
  FC Argininosuccinate lyase (As1) mRNA: 2.0 fold
[1]; GenBank AA250708, liver, STZ vs control mice
  FC Expressed sequence A1266885: −2.5 fold
[1]; GenBank AA260798, liver, STZ vs control mice
  FC RIKEN cDNA 2310009NO5 gene (2310009N05Rik): 1.9 fold
[1]; GenBank AA267683, liver, STZ vs control mice
  FC Isopentenyl-diphosphate delta-isomerase mRNA: −2.0 fold
[1]; GenBank AA270796, liver, STZ vs control mice
  FC Activating transcription factor 5 (Atf5) mRNA: 2.1 fold
[1]; GenBank AA271265, liver, STZ vs control mice
  FC Cellular repressor of E1A-stimulated genes (Creg) mRNA: 2.0 fold
[1]; GenBank AA277153, liver, STZ vs control mice
  FC Splicing factor 3b, subunit 1, 155 kDa (Sf3b1) mRNA: 1.8 fold
[1]; GenBank AA277720, liver, STZ vs control mice
  FC NADH dehydrogenase (ubiquinone) 1 beta subcomplex 6 mRNA: 2.5 fold
[1]; GenBank AA285530, liver, STZ vs control mice
  FC vb90b12.rl Soares mouse 3NbMS cDNA clone IMAGE:764255: 1.9 fold
[1]; GenBank AA289858, liver, STZ vs control mice
  FC Ribonuclease, Rnase A family 4 (Rnase4) mRNA: −4.6 fold
[1]; GenBank AA388848, liver, STZ vs control mice
  FC Splicing factor, arginine/serine-rich 5 (SRp40, HRS) (Sfrs5) mRNA: 1.9 fold
[1]; GenBank AA390043, liver, STZ vs control mice
  FC Nuclear receptor coactivator 3 (Ncoa3) mRNA: 2.1 fold
[1]; GenBank AA472476, liver, STZ vs control mice
  FC Sirtuin 2 (Sirt2) mRNA: −2.0 fold
[1]; GenBank AA472795, liver, STZ vs control mice
  FC Retinal taurine transporter; solute carrier family 6, member 6 (Slc6a6) mRNA: 1.9 fold
[1]; GenBank AA518955, liver, STZ vs control mice
  FC RAB9, member RAS oncogene family (Rab9) mRNA: 1.9 fold
[1]; GenBank AA538556, liver, STZ vs control mice
  FC RIKEN cDNA 1810020N21 gene: 2.0 fold
[1]; GenBank AA592283, liver, STZ vs control mice
  FC Expressed sequence AA960392: 1.8 fold
[1]; GenBank AA600461, liver, STZ vs control mice
  FC Ring finger protein 4 (Rnf4) mRNA: 2.1 fold
[1]; GenBank AA608036, liver, STZ vs control mice
  FC Interferon alpha responsive gene, 15 kDa (Ifrg15-pending) mRNA: 1.9 fold
[1]; GenBank AA655730, liver, STZ vs control mice
  FC RIKEN cDNA 2700059D21 gene: 1.8 fold
[1]; GenBank AA666984, liver, STZ vs control mice
  FC vq87g01.r1 Knowles Solter mouse blastocyst B3 cDNA clone IMAGE: 1109328: 2.0 fold
[1]; GenBank C77421, liver, STZ vs control mice
  FC C77421 Mouse 3.5-dpc blastocyst cDNA clone J0030G04, similar to Mouse B10.VL30LTR gene: 2.5 fold
[1]; GenBank C79645, liver, STZ vs control mice
  FC Expressed sequence C79645: 1.8 fold
[1]; GenBank W3021 1, liver, STZ vs control mice
  FC mc25d02.rl Soares mouse cDNA clone IMAGE:349539: 2.1 fold
[1]; GenBank W08392, liver, STZ vs control mice
  FC ATP synthase, H+ transporting, mitochondrial F0 complex, subunit b, isoform 1 (Atp5f1) mRNA: 1.9 fold
[1]; GenBank W08453, liver, STZ vs control mice
  FC Destrin (Dsn) mRNA: 1.9 fold
[1]; GenBank W12681, liver, STZ vs control mice
  FC Hepatocyte growth factor activator HGFA (Hgfac) mRNA: −2.8 fold
[1]; GenBank W12899, liver, STZ vs control mice
  FC mb19d12.rl Soares mouse cDNA clone IMAGE:329879, similar to ACTIN, AORTIC SMOOTH MUSCLE: −2.9 fold
[1]; GenBank W12913, liver, STZ vs control mice
  FC Hepcidin antimicrobial peptide (Hamp) mRNA: −2.2 fold
[1]; GenBank W12941, liver, STZ vs control mice
  FC RIKEN cDNA 1110004C05 gene: 2.7 fold
[1]; GenBank W13835, liver, STZ vs control mice
  FC Golgi reassembly stacking protein 2 (Grs2-pending) mRNA: 3.5 fold
[1]; GenBank W13878, liver, STZ vs control mice
  FC DEAD/H (Asp-Glu-Ala-Asp/His) box polypeptide 1 mRNA: 1.9 fold
[1]; GenBank W17473, liver, STZ vs control mice
  FC Angiotensinogen (Agt) mRNA: −2.4 fold
[1]; GenBank W18904, liver, STZ vs control mice
  FC Tubulin cofactor a (Tbca) mRNA: 1.8 fold
[1]; GenBank W21013, liver, STZ vs control mice
  FC RIKEN cDNA 1110061M03 gene: −2.6 fold
[1]; GenBank W30137, liver, STZ vs control mice
  FC RIKEN cDNA 2410038A03 gene: 1.9 fold
[1]; GenBank W34349, liver, STZ vs control mice
  FC Coagulation factor XII (Hageman factor) (F12) mRNA: 2.0 fold
[1]; GenBank W53390, liver, STZ vs control mice
  FC Succinate dehydrogenase complex, subunit A, flavoprotein (Fp) (Sdha) mRNA: 2.0 fold
[1]; GenBank W64827, liver, STZ vs control mice
  FC RIKEN cDNA 1810030E05 gene: 2.4 fold
[1]; GenBank W85397, liver, STZ vs control mice
  FC mf48c06.rl Soares mouse embryo cDNA clone IMAGE:408298: 2.0 fold
[1]; GenBank W91222, liver, STZ vs control mice
  FC Cytochrome c oxidase, subunit VIIa 3 (Cox7a3) mRNA: 2.4 fold
[1]; GenBank W98255, liver, STZ vs control mice
  FC CD 81 antigen (Cd81) mRNA: −2.9 fold
[1]; liver of SID mice
  expression of Cytochrome c oxidase: increased
  expression of Glutathione S-transferase μ2: increased
  expression of Glutathione S-transferase π2: increased
  expression of NADH dehydrogenase 1: increased
  expression of RAB 1: increases
  expression of a proteasome subunit: Increased
  expression of alcohol dehydrogenase 1: decreases
  expression of arginase 1: increased
  expression of argininosuccinate synthetase 1: increased
  expression of complement component 4: decreases
  expression of corticosteroid binding globulin: Decreased
  expression of cytochrome P450, 1a2 gene: decreases
  expression of cytochrome P450, 2b13 gene: decreases
  expression of cytochrome P450, 2c29 gene: decreases
  expression of hepatic histidine ammonia lyase: Increased
  expression of hepatic mRNA for insulin-like growth factor binding protein 2: increases
  expression of inter-alpha trypsin inhibitor, heavy chain 3: increases
  expression of lactate dehydrogenase 1: increases
  expression of sorbitol dehydrogenase 1: decreases
  expression of the flavin-containing monooxygenase 5 gene: increases
  expression of the gene for apolipoprotein H: increases
  expression of thioether S-methyltransferase: decreases
  expression of two cytochrome P450, 3a subfamily members: increases
  mRNA for heat shock 70 kD protein 5: induced
  mRNA for hypoxia inducible factor 1: induced
  mRNA for prolyl 4-hydroxylase, beta polypeptide: induced
[1]; liver, control vs STZ-treated mice, more than 11,000 genes and ESTs assessed, 1.8-fold or greater
  number of known genes with a change in expression: 47
[2]
  diabetic state by blood glucose measurements: diabetic
